Experimental findings from BindingDB's records for doi:10.1016/j.ejmech.2017.05.035 (Universidade Estadual De Feira De Santana, 2017) are described below.

One may read the Ki as a dissociation constant, usually derived from enzyme kinetics or from competition with a known ligand. As usually defined, the EC50 is the concentration needed to bring the measured effect to its halfway point.

This assay is described as follows: Antagonist activity at Adenosine receptor subtype 2B in human RBC assessed as change in erythrocyte morphology incubated for 3 hrs with occasional gentle stirring for every 30 min measured for every 12 hrs by microscopic analysis.
In the case of `CCCn1c(=O)n(C)c(=O)c2[nH]c(-c3ccc(O[C@@H](C)C(=O)N4CCN(c5nc6ccc(Cl)cc6s5)CC4)cc3)cc21`, the Ki turned out to be 1 nM.

As to `CC(OC(=O)c1nccnc1N)C(=O)NCc1ccc2c(c1)OCO2` (stereo not drawn), the EC50 worked out at 47 nM.

Consider `Cc1cc(NC(=O)CNc2ccc3c(c2)OC(F)(F)O3)on1`, for which the EC50 is 35 nM. On the same count and under the same terms, to `CCCc1cc(O)nc(SC(C)C(=O)Nc2cc(C)no2)n1` (stereo not drawn) belongs 23 nM; to `O=C(CN1CCOC(Cn2cncn2)C1)Nc1cccnc1` (stereo not drawn), 17 nM; to `CC(C)c1noc(OCC(=O)NCc2ccc3c(c2)OCO3)n1`, 35 nM.

In the case of `C[C@H](Oc1ccc(-c2cc3c([nH]2)c(=O)n(C)c(=O)n3C)cc1)C(=O)Nc1ccc(Br)cc1`, the Ki stood at 1.3 nM. Consider `Cc1ccc(N2CCN(C(=O)[C@H](C)Oc3ccc(-c4cc5c([nH]4)c(=O)n(C)c(=O)n5C)cc3)CC2)cc1`, for which the inhibitory constant (Ki) was 1.8 nM.
